US5391751A, “2,2-dimethylchromene derivatives, process for their preparation and pharmaceutical compositions in which they are present” (priority 1987, dated 1995)
Blank lines part the entries; values can stand above or below the compound they belong to.

Experiments:
isolated rat portal vein = test: Isolated rat portal vein: inhibition of spontaneous contractile activities; parameters: species or system rat (male Sprague Dawley); conditions: 0.25 h, 37° C., 15 min per concentration
Experimental: Male Sprague Dawley rats (250-300 g) are stunned and then bled after their throats have been cut. The portal vein, ligated in situ at two points 15 mm apart, is isolated, cut longitudinally and then mounted vertically in an experimental cell containing a physiological solution, at 37° C., of the following composition (mmol/1): NaCl:137; KC1:5.4; MgCl2 :1.05; CaCl2 :[…]; NaH2 PO4 :12; NaHCO3 :[…]; glucose: 11.5, into which a mixture of gases containing 95% of oxygen and 5% of carbon dioxide is bubbled.
The vein is subjected to a tension of 500 mg. After a period of stabilization (about 1 h 30 min), the spontaneous contractile activities are recorded with the aid of an isometric sensor. Each measurement is performed successively on 4 preparations.
The results are expressed in the form of the molar concentrations which causes a 50 per cent inhibition of the spontaneous contractile activities (IC50).

[1] = tested on: guinea-pig papillary muscle; test: Guinea-pig papillary muscle: ventricular action potential (microelectrode method); parameters: species or system guinea-pig (male Albino Charles River); conditions: for IC50: Cavia porcellus, 0.5 h, 36° C., 60 beats per minute, 30 minutes of perfusion per concentration, read-out: IC50: concentration which produces a 50 per cent reduction in the duration of the action potential
Experimental: Male Albino Charles River guinea-pigs (300-400 g) are stunned and then bled after their throats have been cut. The heart is isolated and opened and the right papillary muscle is excised and then kept alive in an experimental cell containing a physiological solution at 36° C. (composition described above).
The preparation is stimulated with the aid of a bipolar electrode connected to a stimulator (frequency =60 beats per minute). The ventricular action potential is measured by the conventional microelectrode method. The characteristic parameters were measured on the action potentials (AP) before and after the introduction of the test product at 3 successive increasing concentrations (30 minutes of perfusion per concentration). The concentration which produces a 50 per cent reduction in the duration of the AP is indicated (IC50).

[2] = tested on: spontaneously hypertensive rats (SHR); test: Antihypertensive activity on vigilant spontaneously hypertensive rats (SHR); assay type: in vivo, rat (male SHR, Wistar strain)
Experimental: The experiment is performed on male SHR (of the Wistar strain) aged between 11 and 12 weeks; under pentobarbital anesthesia, a catheter is implanted in a carotid artery on the day before the experiment. In the experiment, the diastolic pressure (DP) and systolic pressure (SP) of the vigilant animals are recorded continuously 1 hour before and up to 2 hours after administration of the product. The heart rate (HR) is determined from the pulse pressure and recorded continuously for the same time.
The products were administered orally in a volume of 2 ml per 100 g of body weight after suspension in a 5% aqueous solution of gum arabic.

in vivo = assay type: in vivo; conditions: mouse, in vivo; mice, oral administration
vigilant dogs = test: Antiarrhythmic activity on vigilant dogs (acute infarction); assay type: in vivo, dog; conditions: orally, 0.03 mg/kg and 0.1 mg/kg
Experimental: The method used is the one described by Dupuis et al. (Br. J. Pharmacol., 1976, 58, p. 409), in which an acute infarction is caused by the insertion of a copper spiral into the coronary circulation, with the thorax closed off. The ECG is measured by telemetry and the extrasystoles are analyzed and counted automatically While the animal is being monitored by an internal television circuit. The products were administered orally to animals presenting at least 50 per cent of extrasystoles.

[3] = Overall comparison of activity, toxicity and therapeutic index with reference product; conditions: in the majority of the tests
mice = test: in vivo; assay type: in vivo; conditions: oral administration

Compound: CC1(C)Oc2ccc(Cl)cc2[C@@H](n2ccccc2=O)[C@@H]1O (relative stereo) [Product E, trans-6-chloro-4-(1,2-dihydro-2-oxopyrid-1-yl)-2,2-dimethylchroman-3-ol]
IC50 (isolated rat portal vein): 190 nM

Compound: CC1(C)Oc2ccc(Br)cc2[C@@H](n2ccccc2=O)[C@@H]1O (relative stereo) [Product D, trans-6-bromo-4-(1,2-dihydro-2-oxopyrid-1-yl)-2,2-dimethylchroman-3-ol]
IC50 (isolated rat portal vein): 250 nM

Compound: CC(=O)c1ccc2c(c1)[C@@H](n1ccccc1=O)[C@H](O)C(C)(C)O2 (relative stereo) [Product G, trans-6-acetyl-4-(1,2-dihydro-2-oxopyrid-1-yl)-2,2-dimethylchroman-3-ol]
IC50 (isolated rat portal vein): 190 nM

Compound: CC1(C)Oc2ccc(C#N)cc2[C@@H](N2CCCC2=O)[C@@H]1O (relative stereo) [Product A, trans-6-cyano-4-(2-oxopyrrolidin-1-yl)-2,2-dimethyl-chroman-3-ol, reference compound]
IC50 [1]: 16000 nM
LD50 (in vivo): 500 to 1000 mg/kg
Duration of the effect ([2]; 0.10 mg/kg p.o.): 60 min
Maximum decrease in mean blood pressure (± s.e.) ([2]; 0.10 mg/kg p.o.): 30 ± 10 mm of mercury
Duration of the effect ([2]; 0.20 mg/kg p.o.): 90 min
Maximum decrease in mean blood pressure (± s.e.) ([2]; 0.20 mg/kg p.o.): 56 ± 11 mm of mercury
IC50 (isolated rat portal vein): 68 nM

Compound: CC1(C)C=C(n2ccccc2=O)c2cc(C#N)ccc2O1 [SR 44866, 6-Cyano-4-(1,2-dihydro-2-oxopyrid-1-yl)-2,2-dimethylchromene]
Antiarrhythmic activity (reducing the number of extrasystoles or restoring a sinus rhythm) (vigilant dogs): substantial antiarrhythmic activity
IC50 [1]: 1500 nM
Concentration producing 50 per cent reduction in action potential duration: times lower than that of product A ([1]; versus product A): 10 times
Activity relative to product A [3]: about 10 times
LD50 (in vivo): 1000 mg/kg
LD0 (mice): 500 mg/kg
Duration of the effect ([2]; 0.02 mg/kg p.o.): 90 min
Maximum decrease in mean blood pressure (± s.e.) ([2]; 0.02 mg/kg p.o.): 34 ± 6 mm of mercury
Duration of the effect ([2]; 0.03 mg/kg p.o.): > 120 min
Maximum decrease in mean blood pressure (± s.e.) ([2]; 0.03 mg/kg p.o.): 41 ± 6 mm of mercury
IC50 (isolated rat portal vein): 7.1 nM

More lines, main results first:

IC50 [1]: 20000 nM
IC50 (isolated rat portal vein): 90 nM
Compound: CC1(C)Oc2ccc(C#N)cc2[C@@H](n2ccccc2=O)[C@@H]1O (relative stereo) [Product C, trans-6-cyano-4-(1,2-dihydro-2-oxopyrid-1-yl)-2,2-dimethylchroman-3-ol, reference compound]

IC50 (isolated rat portal vein): 7.9 nM
Compound: CC1(C)C=C(n2ccccc2=O)c2cc(Br)ccc2O1 [SR 45374, 6-Bromo-4-(1,2-dihydro-2-oxopyrid-l-yl)-2,2dimethylchromene]
Duration of the effect ([2]; 0.10 mg/kg p.o.): > 120 min
Maximum decrease in mean blood pressure (± s.e.) ([2]; 0.10 mg/kg p.o.): 32 ± 6 mm of mercury

IC50 (isolated rat portal vein): 11 nM
Compound: CC(=O)c1ccc2c(c1)C(n1ccccc1=O)=CC(C)(C)O2 [SR 45510, 6-Acetyl-4-(1,2-dihydro-2-oxopyrid-1-yl)-2,2-dimethylchromene]

IC50 (isolated rat portal vein): 8 nM
Compound: CC1(C)C=C(n2ccccc2=O)c2cc(Cl)ccc2O1 [SR 45435, 6-Chloro-4-(1,2-dihydro-2-oxopyrid-1-yl)-2,2dimethylchromene]
Duration of the effect ([2]; 0.20 mg/kg p.o.): > 120 min
Maximum decrease in mean blood pressure (± s.e.) ([2]; 0.20 mg/kg p.o.): 70 ± 8 mm of mercury

IC50 (isolated rat portal vein): 70 nM
Compound: CC1(C)C=C(N2CCCC2=O)c2cc(C#N)ccc2O1 [Product B, 6-cyano-4-(2-oxopyrrolidin-1-yl)-2,2-dimethylchromene]

IC50 (isolated rat portal vein): 2.2 nM
Compound: CC1(C)C=C(n2ccccc2=O)c2cc([N+](=O)[O-])ccc2O1 [SR 45509, 4-(1,2-Dihydro-2-oxopyrid-1-yl)-2,2-dimethyl-6-nitrochromene]

IC50 (isolated rat portal vein): 16 nM
Compound: CC1(C)Oc2ccc([N+](=O)[O-])cc2[C@@H](n2ccccc2=O)[C@@H]1O (relative stereo) [Product F, trans-4-(1,2-dihydro-2-oxopyrid-1-yl)-2,2-dimethyl-6-nitrochroman-3-ol]
